Consider four compounds from US7326809B2, “Salts of 4- or 5-aminosalicylic acid” (Antibe Therapeutics Inc., priority 2004, dated 2008).

Data set [1] concerns TNBS-induced colitis. Nature of the data set: TNBS-induced colitis in mice: disease activity score and MPO activity. Format: in vivo, Balb/c mice. The conditions noted are these: oral every 12 h for 5 days, dose equimolar to mesalamine 50 mg/kg. As for the experimental part:
A standard experimental animal model of colitis induced by intracolonic administration of 2,4,6-trinitrobenzene sulfonic acid (TNBS) to mice is used in the following example. A detailed description of this model has been published (Santucci et al. (2003) Gastroenterology 124:1381-94) and is incorporated herein by reference. Briefly, 6-8 week old Balb/c mice were given TNBS intracolonically at a dose of 1.5 mg in 0.1 mL of 30% ethanol. The mice were randomized to the various treatment groups (n=6 per group). Beginning one hour later and continuing every 12 h for 5 days, the mice were treated orally with vehicle (1% carboxymethylcellulose (CMC)), mesalamine (50 mg/kg) or with an equimolar dose of L-arginine salt of mesalamine.
The mice were evaluated (blindly) on the final day of the study for the presence of diarrhea and fecal occult blood, and their body weights were measured. […] The mice were then sacrificed and a sample of the colon was excised for measurement of myeloperoxidase (MPO) activity, an indicia for granulocyte infiltration.

Data set [2] has as its system TNF-α, IFN-γ, IL-1, IL-2, IL-10, IL-12 p40, RANTES, COX-1, COX-2, eNOS, iNOS mRNA. Nature of the data set: mRNA expression (RT-PCR) of inflammatory cytokines and mediators in colon, TNBS-induced colitis in mice. The conditions noted are these: equimolar to mesalamine 50 mg/kg. The data set is classed as in vivo. As for the experimental part:
The same model was used as described above. In this example, the effects of mesalamine (50 mg/kg) were compared to those of equimolar doses of L-arginine salt of mesalamine. Tissues were processed for measurement of a number of genes for inflammatory cytokines and other mediators.
In particular, mRNA expression in mice of tumour necrosis factor-alpha (TNF-α), interferon gamma (IFN-γ), colonic interleukin (IL)-1, IL-2, IL-10, IL-12 p40, RANTES, cyclooxygenase (COX)-1, COX-2, constitutive endothelial nitric oxide synthase (eNOS), and inducible NOS (iNOS) was measured as described in Wallace et al. (1999) Gastroenterology 117: 557-566, incorporated herein by reference.
Briefly, reverse transcription-polymerase chain reaction (RT-PCR) was used to detect and quantify mRNA of the particular cytokine/chemokine/enzyme. Glyceraldehyde-3-phosphate dehydrogenase (GAPDH) was used as the “housekeeping gene” for mRNA expression (i.e., as an internal control). For each sample, the ratio of the amplification of the target gene to the amplification of GAPDH (expression of each is measured by performing densitometry on gels) was obtained. Comparisons were then made between the relative amplification (expression) of the target gene in tissues for the treatment groups in comparison to the expression in tissues from healthy controls. Thus, the data shown in the following FIGS. represent the relative expression of the target gene (normalized to GAPDH expression) as a ratio to the expression in healthy controls.

The nature of data set [3]: In vitro anti-oxidant assay with a coloured, stable free radical. Format: biochemical. To be noted: for % Free Radical Scavenging: in ethanol, means of quadruplicate experiments; for pIC50: concentration that reduced the levels of the free radical by 50%, read-out: 50% Inhibitory Concentrations IC50. Here is the method: One of the mechanisms through which mesalamine is thought to provide benefit in the treatment of inflammatory bowel disease is through scavenging of free radicals. Therefore, the anti-oxidant activity of mesalamine was compared to that of L-arginine salt of mesalamine and L-arginine. Anti-oxidant activity of the test drugs was measured in an in vitro assay that employs a coloured, stable free radical as outlined in Vaananen, P. M. et al. (1992) Inflammation 16: 227-240 and Smith, R. C. et al. (1987) Free Rad. Biol. Med. 3: 251-257, both incorporated herein by reference. Drugs with anti-oxidant activity reduce this reagent resulting in a change in colour, which can be detected spectrophotometrically. A range of concentrations of L-arginine salt of mesalamine, mesalamine and L-arginine, all prepared in ethanol, were tested and the concentration that reduced the levels of the free radical by 50% were calculated.

Data set [4] relates to TNBS-induced colitis. Nature of the data set: TNBS-induced colitis in rats: edema, MPO activity, body weight. Format: in vivo, male, Wistar rats. To be noted: every 12 h for 4 days, salt at 50% of the dose equimolar to mesalamine 50 mg/kg. Here is the method: Colitis was induced in male, Wistar rats by intracolonic administration of TNBS, as outlined in Wallace et al. (1990), Am J Physiol. 258: G527-G534, incorporated herein by reference. Briefly, beginning 1 h later and continuing at 12 h intervals for 4 days, the rats were treated with vehicle (1% CMC), mesalamine (50 mg/kg), L-arginine (equimolar) or L-arginine salt of mesalamine (50% of the equimolar dose). Changes in body weight were recorded, as were incidences of mortality. At the end of the study, the colon was excised and the thickness of the bowel wall was measured with digital callipers, as an index of edema. Also, a sample of tissue was processed for measurement of myeloperoxidase (MPO) activity, as an index of granulocyte infiltration.

The conditions of data set [5]: following oral ingestion of 500 mg; cited from earlier work.

pIC50: −log10 of the molar value. Counter-ions that a name gives are not always drawn. Like-named read-outs stand apart in the source and are kept apart here. A value given as a limit tells only on which side of the number the result lay.

Consider `N=C(N)NCCC[C@H](N)C(=O)O.Nc1ccc(O)c(C(=O)O)c1` [L-arginine salt of mesalamine, L-arginine salt of 5-aminosalicylic acid], for which the “myeloperoxidase (MPO) activity (granulocyte infiltration)” value in the data set with TNBS-induced colitis [1] (colon sample) was “superior to mesalamine alone in reducing MPO activity”. Besides, in the data set on TNBS-induced colitis [1] (0 to 4 scale), the disease activity score result is reported as “superior to mesalamine alone in reducing the disease”. In data set [2] (colonic), the “COX-1 mRNA expression” value is “suppressed”, the “COX-2 mRNA expression” value is listed as “suppressed”, the “eNOS mRNA expression” value is reported as “suppressed” and the “iNOS mRNA expression” value is reported as “suppressed”. In addition, in data set [2], the “IL-10 mRNA expression” value is “did not suppress”; the “expression of mRNA for several pro-inflammatory cytokines and chemokines” value was “suppressed”. In data set [2] (normalized to GAPDH, ratio to healthy controls), the “mRNA expression of inflammatory cytokines and other mediators, every endpoint (FIGS. 3 to 8)” value was “superior to mesalamine in every endpoint”. Also, the “% Free Radical Scavenging” value in data set [3] (0.03 mM) is recorded as 5.2%. Besides, in data set [3] (0.1 mM), the “% Free Radical Scavenging” value worked out at 23.9%. Also, the “% Free Radical Scavenging” value in data set [3] (0.3 mM) worked out at 57.7%. The “% Free Radical Scavenging” value in data set [3] (1 mM) is given as 96.3%. For the same compound, the “% Free Radical Scavenging” value in data set [3] (3 mM) is on record as 100%. For the same compound, the “% Free Radical Scavenging” value in data set [3] (10 mM) came out at 100%. The “anti-oxidant potency relative to mesalamine” value in data set [3] (from IC50 values) is given as “about three-times more potent”. Also, in the data set with TNBS-induced colitis [4], the body weight loss result was “superior to both mesalamine and L-arginine”; the “colitis-associated edema (thickness of the bowel wall)” value was “superior to both mesalamine and L-arginine”; the “myeloperoxidase (MPO) activity (granulocyte infiltration)” value was “superior to both mesalamine and L-arginine”.
As to `Nc1ccc(O)c(C(=O)O)c1` [L-arginine salt of mesalamine, L-arginine salt of 5-aminosalicylic acid], in data set [3] (listed as ATB-428), the pIC50 is 3.39.
On to `N=C(N)NCCC[C@H](N)C(=O)O` [L-arginine], for which the “% Free Radical Scavenging” value in data set [3] (0.03 mM), in data set [3] (0.1 mM), in data set [3] (0.3 mM), in data set [3] (1 mM), in data set [3] (3 mM) and in data set [3] (10 mM) was 0% each time. Also, in data set [3], the pIC50 was under 2.00. Besides, in data set [3] (concentrations of up to 10 mM), the anti-oxidant activity result was “did not exhibit any anti-oxidant activity”. The “anti-oxidant activity (in words)” value in data set [3] (summary statement) is “very little anti-oxidant activity”. In addition, the “free radical scavenging effects (in words)” value in data set [3] (summary statement) is reported as “no free radical scavenging effects”.
Regarding `Nc1ccc(O)c(C(=O)O)c1` [Mesalamine, 5-aminosalicylic acid], the “luminal concentrations of mesalamine in the colon” value in data set [5] is 1 mM. The “% Free Radical Scavenging” value in data set [3] (0.03 mM) was 2.2%; in data set [3] (0.3 mM), 23.6%; in data set [3] (1 mM), 50.3%; in data set [3] (3 mM), 96.1%; in data set [3] (10 mM), 100%. Moreover, in data set [3], the pIC50 is 2.90.
